Experimental data: PMC8429728, “TNK1 is a ubiquitin-binding and 14-3-3-regulated kinase that can be targeted to block tumor growth” (Nature Communications, 2021)
pIC50: −log10 of the molar value. Each block holds one molecule with its values, some of them ahead of it.

Columns and labels:
Assay in all cases: biochemical
Design in all cases: Reaction Biology kinase panel, control compounds in 10-dose IC50 mode at Km ATP
CK2a = target: T1, CK2a (Homo sapiens, UniProt P68400)
T1 construct: gene CSNK2A1
T1 sequence (P68400 whole entry): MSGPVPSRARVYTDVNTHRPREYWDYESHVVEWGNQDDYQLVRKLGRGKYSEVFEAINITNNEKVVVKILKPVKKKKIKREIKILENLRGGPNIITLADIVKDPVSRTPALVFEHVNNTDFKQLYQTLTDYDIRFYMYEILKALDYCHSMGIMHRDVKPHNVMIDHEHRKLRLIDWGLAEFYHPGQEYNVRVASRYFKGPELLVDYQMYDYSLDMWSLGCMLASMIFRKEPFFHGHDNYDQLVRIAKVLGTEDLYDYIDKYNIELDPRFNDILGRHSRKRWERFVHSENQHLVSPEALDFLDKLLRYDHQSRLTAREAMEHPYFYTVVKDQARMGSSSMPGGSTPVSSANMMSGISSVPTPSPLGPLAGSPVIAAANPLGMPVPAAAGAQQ

DYRK4 = target: T2, DYRK4 (Homo sapiens, UniProt Q9NR20)
T2 sequence (Q9NR20 1-520): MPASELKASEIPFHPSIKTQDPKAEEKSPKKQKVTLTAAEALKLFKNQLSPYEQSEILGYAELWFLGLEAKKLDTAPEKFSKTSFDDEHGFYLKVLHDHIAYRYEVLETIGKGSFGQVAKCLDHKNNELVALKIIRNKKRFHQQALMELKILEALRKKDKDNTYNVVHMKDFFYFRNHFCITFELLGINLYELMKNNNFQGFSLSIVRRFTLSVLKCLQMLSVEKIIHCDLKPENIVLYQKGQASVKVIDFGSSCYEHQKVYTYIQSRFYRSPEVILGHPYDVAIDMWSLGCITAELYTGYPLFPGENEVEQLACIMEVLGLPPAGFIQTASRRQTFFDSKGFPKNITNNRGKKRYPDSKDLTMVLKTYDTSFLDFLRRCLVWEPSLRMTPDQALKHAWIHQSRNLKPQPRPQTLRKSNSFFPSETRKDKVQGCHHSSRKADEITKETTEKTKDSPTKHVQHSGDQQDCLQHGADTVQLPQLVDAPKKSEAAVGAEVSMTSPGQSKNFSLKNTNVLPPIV

ZAK/MLTK = target: T3, ZAK/MLTK (Homo sapiens, UniProt Q9NYL2)
T3 construct: gene MAP3K20
T3 sequence (Q9NYL2 whole entry): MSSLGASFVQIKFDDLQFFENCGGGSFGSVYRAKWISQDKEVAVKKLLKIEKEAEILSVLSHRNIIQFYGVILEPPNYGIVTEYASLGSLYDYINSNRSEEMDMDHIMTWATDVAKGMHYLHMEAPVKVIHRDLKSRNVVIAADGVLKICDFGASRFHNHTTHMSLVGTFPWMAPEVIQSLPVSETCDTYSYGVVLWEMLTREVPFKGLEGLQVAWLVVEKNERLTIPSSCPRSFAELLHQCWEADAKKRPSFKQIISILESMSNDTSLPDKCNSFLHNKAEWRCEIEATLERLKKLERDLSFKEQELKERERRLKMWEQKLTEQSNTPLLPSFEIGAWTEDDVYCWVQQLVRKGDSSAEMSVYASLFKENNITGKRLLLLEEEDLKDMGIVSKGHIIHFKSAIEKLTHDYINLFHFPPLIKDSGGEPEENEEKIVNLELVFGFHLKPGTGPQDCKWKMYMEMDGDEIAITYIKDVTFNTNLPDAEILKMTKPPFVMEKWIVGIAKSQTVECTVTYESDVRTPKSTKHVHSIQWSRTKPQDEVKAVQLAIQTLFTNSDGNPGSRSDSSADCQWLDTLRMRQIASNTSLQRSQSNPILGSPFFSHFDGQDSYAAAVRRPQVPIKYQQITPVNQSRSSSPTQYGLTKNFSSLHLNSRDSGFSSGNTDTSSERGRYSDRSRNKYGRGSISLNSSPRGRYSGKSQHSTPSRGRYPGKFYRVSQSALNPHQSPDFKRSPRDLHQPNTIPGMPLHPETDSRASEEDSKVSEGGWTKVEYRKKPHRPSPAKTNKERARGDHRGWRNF

ARAF = target: T4, ARAF (Homo sapiens, UniProt P10398)
T4 sequence (P10398 1-606): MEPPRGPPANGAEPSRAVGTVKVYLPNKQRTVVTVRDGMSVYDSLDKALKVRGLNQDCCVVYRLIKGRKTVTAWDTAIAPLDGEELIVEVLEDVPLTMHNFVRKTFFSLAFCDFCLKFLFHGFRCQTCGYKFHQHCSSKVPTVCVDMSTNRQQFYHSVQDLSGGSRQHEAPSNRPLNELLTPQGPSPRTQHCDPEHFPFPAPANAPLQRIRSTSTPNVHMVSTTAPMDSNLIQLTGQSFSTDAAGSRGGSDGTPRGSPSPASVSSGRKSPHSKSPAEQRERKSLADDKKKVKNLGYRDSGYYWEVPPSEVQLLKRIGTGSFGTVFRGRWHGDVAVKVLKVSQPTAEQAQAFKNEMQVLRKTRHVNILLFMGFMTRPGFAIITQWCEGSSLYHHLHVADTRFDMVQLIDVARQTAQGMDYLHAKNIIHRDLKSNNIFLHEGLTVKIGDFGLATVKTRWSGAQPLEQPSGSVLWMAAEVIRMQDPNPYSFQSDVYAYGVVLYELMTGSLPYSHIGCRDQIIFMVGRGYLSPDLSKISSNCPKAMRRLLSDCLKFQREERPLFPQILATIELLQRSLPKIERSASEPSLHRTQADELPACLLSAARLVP

TGFBR2 = TGFBR2 (Homo sapiens, UniProt P37173)
Sequence of TGFBR2 (P37173 whole entry): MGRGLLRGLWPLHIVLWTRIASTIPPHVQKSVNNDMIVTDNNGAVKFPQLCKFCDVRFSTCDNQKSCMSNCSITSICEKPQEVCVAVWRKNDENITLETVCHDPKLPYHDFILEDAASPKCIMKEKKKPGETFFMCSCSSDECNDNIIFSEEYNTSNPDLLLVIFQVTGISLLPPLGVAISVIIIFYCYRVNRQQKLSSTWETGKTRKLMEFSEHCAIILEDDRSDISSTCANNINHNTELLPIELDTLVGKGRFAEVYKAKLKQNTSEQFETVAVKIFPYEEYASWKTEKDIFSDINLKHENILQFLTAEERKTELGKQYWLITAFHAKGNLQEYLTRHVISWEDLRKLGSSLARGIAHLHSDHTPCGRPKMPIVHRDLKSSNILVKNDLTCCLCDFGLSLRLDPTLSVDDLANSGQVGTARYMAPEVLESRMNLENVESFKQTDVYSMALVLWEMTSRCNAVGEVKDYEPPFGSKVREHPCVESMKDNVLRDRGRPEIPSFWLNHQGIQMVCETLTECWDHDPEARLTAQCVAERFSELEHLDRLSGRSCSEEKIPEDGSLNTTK

HPK1/MAP4K1 = HPK1/MAP4K1 (Homo sapiens, UniProt Q92918)
Sequence of HPK1/MAP4K1 (Q92918 whole entry): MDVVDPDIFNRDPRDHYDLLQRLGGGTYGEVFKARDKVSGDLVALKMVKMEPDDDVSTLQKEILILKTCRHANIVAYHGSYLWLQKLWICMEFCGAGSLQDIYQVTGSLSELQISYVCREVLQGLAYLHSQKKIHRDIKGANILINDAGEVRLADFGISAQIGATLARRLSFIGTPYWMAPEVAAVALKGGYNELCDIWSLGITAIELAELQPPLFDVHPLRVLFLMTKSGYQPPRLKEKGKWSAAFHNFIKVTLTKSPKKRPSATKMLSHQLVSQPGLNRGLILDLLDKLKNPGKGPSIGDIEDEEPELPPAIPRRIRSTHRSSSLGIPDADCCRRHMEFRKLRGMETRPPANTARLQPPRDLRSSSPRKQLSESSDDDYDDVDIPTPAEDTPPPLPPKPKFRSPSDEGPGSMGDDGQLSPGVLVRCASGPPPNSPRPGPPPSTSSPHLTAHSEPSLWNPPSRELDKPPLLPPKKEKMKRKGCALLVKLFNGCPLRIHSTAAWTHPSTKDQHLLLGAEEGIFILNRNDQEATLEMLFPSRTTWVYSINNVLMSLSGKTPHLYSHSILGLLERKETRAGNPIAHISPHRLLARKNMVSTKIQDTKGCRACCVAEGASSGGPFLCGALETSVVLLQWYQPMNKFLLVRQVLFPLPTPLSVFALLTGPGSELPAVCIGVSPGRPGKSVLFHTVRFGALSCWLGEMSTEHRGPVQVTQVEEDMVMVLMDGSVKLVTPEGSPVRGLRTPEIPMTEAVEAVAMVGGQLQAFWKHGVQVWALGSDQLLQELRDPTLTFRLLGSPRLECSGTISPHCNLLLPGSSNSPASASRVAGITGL

COT1/MAP3K8 = COT1/MAP3K8 (Homo sapiens, UniProt P41279)
VRK2 = VRK2 (Homo sapiens, UniProt Q86Y07)
Sequence of VRK2 (Q86Y07 whole entry): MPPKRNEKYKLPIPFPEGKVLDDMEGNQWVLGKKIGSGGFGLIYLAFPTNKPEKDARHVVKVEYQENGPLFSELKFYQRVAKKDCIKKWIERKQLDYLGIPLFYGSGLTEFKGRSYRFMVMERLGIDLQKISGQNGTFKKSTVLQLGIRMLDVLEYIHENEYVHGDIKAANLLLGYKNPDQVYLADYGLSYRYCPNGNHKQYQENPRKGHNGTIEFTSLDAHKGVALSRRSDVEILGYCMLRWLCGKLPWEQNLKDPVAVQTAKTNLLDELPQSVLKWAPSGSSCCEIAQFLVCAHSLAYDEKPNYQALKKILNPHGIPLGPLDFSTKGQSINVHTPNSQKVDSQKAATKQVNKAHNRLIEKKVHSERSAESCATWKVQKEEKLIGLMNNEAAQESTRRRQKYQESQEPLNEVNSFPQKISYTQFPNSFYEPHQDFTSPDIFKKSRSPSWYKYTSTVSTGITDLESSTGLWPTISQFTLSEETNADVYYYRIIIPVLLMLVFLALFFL

HIPK1 = HIPK1 (Homo sapiens, UniProt Q86Z02)
LOK/STK10 = LOK/STK10 (Homo sapiens, UniProt O94804)
TTBK2 = TTBK2 (Homo sapiens, UniProt Q6IQ55)
TTBK1 = TTBK1 (Homo sapiens, UniProt Q5TCY1); details: control compound, Km ATP; read-out: IC50 (M) Control Cmpd
Sequence of TTBK1 (Q5TCY1 whole entry): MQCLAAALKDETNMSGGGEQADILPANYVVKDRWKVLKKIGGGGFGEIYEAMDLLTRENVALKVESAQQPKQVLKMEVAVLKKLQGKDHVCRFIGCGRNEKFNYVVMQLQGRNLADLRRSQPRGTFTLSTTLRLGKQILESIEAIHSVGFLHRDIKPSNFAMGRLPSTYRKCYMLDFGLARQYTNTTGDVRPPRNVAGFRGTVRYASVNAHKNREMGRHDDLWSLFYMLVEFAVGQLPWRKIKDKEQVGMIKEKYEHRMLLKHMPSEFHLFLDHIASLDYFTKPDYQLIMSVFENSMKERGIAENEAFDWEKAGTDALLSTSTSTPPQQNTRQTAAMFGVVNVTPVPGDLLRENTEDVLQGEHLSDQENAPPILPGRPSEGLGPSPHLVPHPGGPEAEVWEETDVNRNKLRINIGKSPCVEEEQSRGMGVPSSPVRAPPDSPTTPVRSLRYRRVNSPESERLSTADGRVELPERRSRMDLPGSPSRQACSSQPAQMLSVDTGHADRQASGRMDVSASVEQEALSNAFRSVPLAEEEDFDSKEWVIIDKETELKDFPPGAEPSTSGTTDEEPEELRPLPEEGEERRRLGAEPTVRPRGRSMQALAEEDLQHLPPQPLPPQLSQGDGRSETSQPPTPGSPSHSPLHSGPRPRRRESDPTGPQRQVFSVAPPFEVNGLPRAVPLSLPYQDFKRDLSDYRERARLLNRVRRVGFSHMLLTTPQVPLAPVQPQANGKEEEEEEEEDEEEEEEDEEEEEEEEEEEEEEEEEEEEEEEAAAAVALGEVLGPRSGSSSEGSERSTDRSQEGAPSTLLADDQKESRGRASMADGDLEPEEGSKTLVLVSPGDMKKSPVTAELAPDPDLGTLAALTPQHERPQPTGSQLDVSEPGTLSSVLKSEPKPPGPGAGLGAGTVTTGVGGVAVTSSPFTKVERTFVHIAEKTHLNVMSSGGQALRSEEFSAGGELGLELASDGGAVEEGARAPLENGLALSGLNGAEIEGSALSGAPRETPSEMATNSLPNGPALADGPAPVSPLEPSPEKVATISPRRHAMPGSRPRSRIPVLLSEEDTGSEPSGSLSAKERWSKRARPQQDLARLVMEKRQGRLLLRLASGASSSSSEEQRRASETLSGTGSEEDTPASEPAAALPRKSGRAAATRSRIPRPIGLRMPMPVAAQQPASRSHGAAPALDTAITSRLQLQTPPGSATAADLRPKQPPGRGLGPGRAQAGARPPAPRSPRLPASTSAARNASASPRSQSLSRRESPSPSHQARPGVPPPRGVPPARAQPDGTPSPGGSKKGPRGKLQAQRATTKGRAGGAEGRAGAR

ERK1 = target: T5, ERK1 (Homo sapiens, UniProt P27361)
T5 construct: gene MAPK3
T5 sequence (P27361 whole entry): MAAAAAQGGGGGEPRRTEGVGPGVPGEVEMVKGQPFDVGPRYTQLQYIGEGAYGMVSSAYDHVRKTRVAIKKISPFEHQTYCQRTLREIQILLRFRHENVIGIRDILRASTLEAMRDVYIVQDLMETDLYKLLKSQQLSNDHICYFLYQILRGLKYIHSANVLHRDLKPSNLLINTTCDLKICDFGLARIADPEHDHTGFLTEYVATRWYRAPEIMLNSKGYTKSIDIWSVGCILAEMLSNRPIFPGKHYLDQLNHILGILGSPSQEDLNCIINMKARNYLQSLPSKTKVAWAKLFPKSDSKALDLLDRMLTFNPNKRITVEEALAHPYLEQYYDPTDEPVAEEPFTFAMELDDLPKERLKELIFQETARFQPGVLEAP

PKMYT1 = target: T6, PKMYT1 (Homo sapiens, UniProt Q99640)
T6 sequence (Q99640 1-499): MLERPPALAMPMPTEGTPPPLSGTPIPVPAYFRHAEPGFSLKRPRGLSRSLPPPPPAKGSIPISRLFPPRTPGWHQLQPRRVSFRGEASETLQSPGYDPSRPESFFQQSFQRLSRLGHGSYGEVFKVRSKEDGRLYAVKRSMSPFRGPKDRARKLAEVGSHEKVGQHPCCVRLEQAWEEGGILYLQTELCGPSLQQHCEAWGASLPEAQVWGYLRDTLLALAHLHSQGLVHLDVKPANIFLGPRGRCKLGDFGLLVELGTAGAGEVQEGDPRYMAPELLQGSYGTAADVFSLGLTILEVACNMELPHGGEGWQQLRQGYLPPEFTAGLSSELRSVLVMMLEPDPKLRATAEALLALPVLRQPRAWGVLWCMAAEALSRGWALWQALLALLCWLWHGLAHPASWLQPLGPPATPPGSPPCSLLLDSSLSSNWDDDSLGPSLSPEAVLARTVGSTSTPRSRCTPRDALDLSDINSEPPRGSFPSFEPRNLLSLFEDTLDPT

Structure (SMILES): c1ccc2c(-c3cnn4cc(-c5ccc(N6CCNCC6)cc5)cnc34)ccnc2c1 [LDN193189]
- pIC50 (TGFBR2): 7.26

Structure (SMILES): Oc1ccc(-c2nc(-c3ccncc3)c(-c3ccc(F)cc3)[nH]2)cc1 [SB202190]
- pIC50 (TTBK2): 5.26
- IC50 (TTBK1): 1.31e-05 M

Structure (SMILES): O=C(Nc1ccc2[nH]nc(-c3ccncc3)c2c1)[C@@H]1CCN(CC(=O)N2CCN(c3ccc(-c4ncccn4)cc3)CC2)C1 [SCH772984]
- pIC50 (ERK1): 8.03

Structure (SMILES): CN[C@@H]1C[C@H]2O[C@@](C)([C@@H]1OC)n1c3ccccc3c3c4c(c5c6ccccc6n2c5c31)C(=O)NC4 [STAUROSPORINE]
- pIC50 (PKMYT1): 7.98

Second part, the molecule after the results:

- pIC50 (CK2a): 6.64
- pIC50 (DYRK4): 5.79
- pIC50 (ZAK/MLTK): 5.51
- pIC50 (ARAF): 7.82
Structure (SMILES): O=C1Nc2ccc(I)cc2/C1=C/c1cc(Br)c(O)c(Br)c1 [GW5074]

- pIC50 (HPK1/MAP4K1): 7.29
- pIC50 (COT1/MAP3K8): 4.99
- pIC50 (VRK2): 5.24
- pIC50 (HIPK1): 5.51
- pIC50 (LOK/STK10): 6.85
Structure (SMILES): Cn1cc(C2=C(c3cn(CCCSC(=N)N)c4ccccc34)C(=O)NC2=O)c2ccccc21 [RO-31-8220]
